Laboratory results reported in patent EP4725957A1, “GROUP OF CYCLIC ALKALINE LIPOPEPTIDE COMPOUNDS, AND PREPARATION METHOD THEREFOR AND USE THEREOF” (Institute of Medicinal Biotechnology, Chinese Academy of …, priority 2023, dated 2024).
Values after ≈ are worked out from the molar mass of the structure shown. Like-named read-outs stand apart in the source and are kept apart here. Bridge positions count the residues as written; N and C are the ends. Square brackets hold non-standard residues; d marks the D form. Peptide text beside a SMILES is read from it. * marks the point of attachment. Dab(CH2SO3H) = N[C@@H](CCNCS(=O)(=O)O)C(=O)O; Heptanoyl(6-Me) = CC(C)CCCCC(=O)*; Nonanoyl = CCCCCCCCC(=O)*; X1 = CC[C@H](C)CCCCC(=O)*; dDab = NCC[C@@H](N)C(=O)O; Heptanoyl = CCCCCCC(=O)*; Octanoyl = CCCCCCCC(=O)*; Orn = NCCC[C@H](N)C(=O)O; dDap = NC[C@@H](N)C(=O)O; Dab = NCC[C@H](N)C(=O)O; Dap = NC[C@H](N)C(=O)O

Legend:
Type in all cases: cell-based
[1] = Nephrotoxicity assay: in vitro cytotoxicity of HK-2 cells by CCK-8 assay; settings: human, HK-2 cells (human renal), 72 h incubation with drug-containing medium
Method in brief: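 Compounds in sterile water, diluted to final 500, 250, 200, 100, 50, 25 and 12.5 µg/mL, were applied for 72 h to human HK-2 kidney cells. Absorbance at 450 nm after 3 h CCK-8 gave viability against untreated wells, and IC50 came from logarithmic regression; three replicates.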

[2] = test system: Klebsiella pneumoniae ATCC BAA-1705 (KPC)
Method in brief: (§1)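 Per CLSI, bacteria at a final (2-4) × 10^5 CFU/mL were exposed in Mueller-Hinton broth to two-fold compound series (final 64 down to 0.03 mg/L). MIC read after 16-20 h at 35-37°C in sealed plates.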

[3] = test system: Acinetobacter baumannii ABA19-1
Method in brief: as §1

[4] = test system: Escherichia coli ATCC BAA-2523
Method in brief: as §1

[5] = test system: Escherichia coli ATCC BAA-2340 (KPC)
Method in brief: as §1

[6] = test system: Acinetobacter baumannii NCTC 13304 (OXA-27)
Method in brief: as §1

[7] = test system: Pseudomonas aeruginosa PAE19-3
Method in brief: as §1

[8] = test system: Klebsiella pneumoniae KPN+19-15
Method in brief: as §1

[9] = test system: Pseudomonas aeruginosa ATCC 27853
Method in brief: as §1

| Compound | IC50 at 72 h [1] [µg/mL] | MIC ([2]; Klebsiella pneumoniae ATCC BAA-1705 (KPC)) [µg/mL] | MIC ([3]; Acinetobacter baumannii ABA19-1) [µg/mL] | MIC ([4]; Escherichia coli ATCC BAA-2523) [µg/mL] | MIC ([5]; Escherichia coli ATCC BAA-2340 (KPC)) [µg/mL] | MIC ([6]; Acinetobacter baumannii NCTC 13304 (OXA-27)) [µg/mL] | MIC ([7]; Pseudomonas aeruginosa PAE19-3) [µg/mL] | MIC ([8]; Klebsiella pneumoniae KPN 19-15) [µg/mL] | MIC ([9]; Pseudomonas aeruginosa ATCC27853) [µg/mL] | MIC ([2]; ATCC BAA-1705) [µg/mL] | MIC ([3]; ABA19-1) [µg/mL] | MIC ([4]; ATCC BAA-2523) [µg/mL] | MIC ([5]; ATCC BAA-2340) [µg/mL] | MIC ([6]; NCTC 13304) [µg/mL] | MIC ([7]; PAE19-3) [µg/mL] | MIC ([8]; KPN+19-15) [µg/mL] | MIC ([9]; ATCC 27853) [µg/mL] |
| --- | --- | --- | --- | --- | --- | --- | --- | --- | --- | --- | --- | --- | --- | --- | --- | --- | --- |
| CC(C)CCCCC(=O)N[C@@H](CCN)C(=O)N[C@H](C(=O)N[C@H](CN)C(=O)N[C@H]1CCNC(=O)[C@H]([C@@H](C)O)NC(=O)[C@H](CCN)NC(=O)[C@H](CCN)NC(=O)[C@H]([C@@H](C)O)NC(=O)[C@H](Cc2ccccc2)NC(=O)[C@H](CCN)NC1=O)[C@@H](C)O [Compound 102, 6-methylheptanoyl-Dab-Thr-D-Dap-ring(4-10)[Dab-Dab-Phe-Thr-Dab-Dab-Thr]] ({Heptanoyl(6-Me)}-[Dab]T[dDap][Dab][Dab]FT[Dab][Dab]T; lactam 4-C) | > 500 | >64 | >64 | >64 | >64 | >64 | >64 | >64 | >64 |  |  |  |  |  |  |  |  |
| CC(C)CCCCC(=O)N[C@@H](CCNCS(=O)(=O)O)C(=O)N[C@H](C(=O)N[C@H](CO)C(=O)N[C@H]1CCNC(=O)[C@H]([C@@H](C)O)NC(=O)[C@H](CCN)NC(=O)[C@H](CCN)NC(=O)[C@H]([C@@H](C)O)NC(=O)[C@@H](Cc2ccccc2)NC(=O)[C@H](CCN)NC1=O)[C@@H](C)O [Compound 108, 6-methylheptanoyl-Dab(CH2SO3H)-Thr-D-Ser-ring(4-10)[Dab-Dab-D-Phe-Thr-Dab-Dab-Thr]] ({Heptanoyl(6-Me)}-[Dab(CH2SO3H)]T[dS][Dab][Dab][dF]T[Dab][Dab]T; lactam 4-C) | > 500 |  |  |  |  |  |  |  |  | 0.125 (≈ 0.0993 µM) | 0.25 (≈ 0.199 µM) | 0.06 (≈ 0.0477 µM) | 0.06 (≈ 0.0477 µM) | 0.06 (≈ 0.0477 µM) | 0.5 (≈ 0.397 µM) | 0.125 (≈ 0.0993 µM) | 0.25 (≈ 0.199 µM) |
| CCCCCCC(=O)N[C@@H](CN)C(=O)N[C@H](C(=O)N[C@H](CO)C(=O)N[C@H]1CCNC(=O)[C@H]([C@@H](C)O)NC(=O)[C@H](CCN)NC(=O)[C@H](CCN)NC(=O)[C@H]([C@@H](C)O)NC(=O)[C@@H](Cc2ccccc2)NC(=O)[C@H](CCN)NC1=O)[C@@H](C)O [Compound 54, Heptanoyl-Dap-Thr-D-Ser-ring(4-10)[Dab-Dab-D-Phe-Thr-Dab-Dab-Thr]] (Heptanoyl-[Dap]T[dS][Dab][Dab][dF]T[Dab][Dab]T; lactam 4-C) | > 500 |  |  |  |  |  |  |  |  | 0.25 (≈ 0.22 µM) | 0.25 (≈ 0.22 µM) | 0.03 (≈ 0.0264 µM) | 0.03 (≈ 0.0264 µM) | 0.25 (≈ 0.22 µM) | 8 (≈ 7.04 µM) | 0.5 (≈ 0.44 µM) | 64 (≈ 56.3 µM) |
| CC(C)CCCCC(=O)N[C@@H](CCNCS(=O)(=O)O)C(=O)N[C@H](C(=O)N[C@@H](CN)C(=O)N[C@H]1CCNC(=O)[C@H]([C@@H](C)O)NC(=O)[C@H](CCN)NC(=O)[C@H](CCN)NC(=O)[C@H]([C@@H](C)O)NC(=O)[C@@H](Cc2ccccc2)NC(=O)[C@H](CCN)NC1=O)[C@@H](C)O [Compound 117, 6-methylheptanoyl-Dab(CH2SO3H)-Thr-Dap-ring(4-10)[Dab-Dab-D-Phe-Thr-Dab-Dab-Thr]] ({Heptanoyl(6-Me)}-[Dab(CH2SO3H)]T[Dap][Dab][Dab][dF]T[Dab][Dab]T; lactam 4-C) | > 500 |  |  |  |  |  |  |  |  | 0.125 (≈ 0.0994 µM) | 0.25 (≈ 0.199 µM) | 0.06 (≈ 0.0477 µM) | 0.06 (≈ 0.0477 µM) | 0.06 (≈ 0.0477 µM) | 0.5 (≈ 0.398 µM) | 0.125 (≈ 0.0994 µM) | 0.25 (≈ 0.199 µM) |
| CCCCCCCCC(=O)N[C@@H](CCN)C(=O)N[C@H](C(=O)N[C@H](CN)C(=O)N[C@H]1CCNC(=O)[C@H]([C@@H](C)O)NC(=O)[C@H](CCN)NC(=O)[C@H](CCN)NC(=O)[C@H]([C@@H](C)O)NC(=O)[C@@H](Cc2ccccc2)NC(=O)[C@H](CCN)NC1=O)[C@@H](C)O [Compound 5, Nonanoyl-Dab-Thr-D-Dap-ring(4-10)[Dab-Dab-D-Phe-Thr-Dab-Dab-Thr]] (Nonanoyl-[Dab]T[dDap][Dab][Dab][dF]T[Dab][Dab]T; lactam 4-C) | 380 ± 30.5 (≈ 323 µM) |  |  |  |  |  |  |  |  | 0.06 (≈ 0.051 µM) | 0.06 (≈ 0.051 µM) | 0.06 (≈ 0.051 µM) | 0.06 (≈ 0.051 µM) | 0.06 (≈ 0.051 µM) | 0.5 (≈ 0.425 µM) | 0.06 (≈ 0.051 µM) | 0.06 (≈ 0.051 µM) |
| CC[C@H](C)CCCCC(=O)N[C@@H](CCN)C(=O)N[C@H](C(=O)N[C@H](CCN)C(=O)N[C@H]1CCNC(=O)[C@H]([C@@H](C)O)NC(=O)[C@H](CCN)NC(=O)[C@H](CCN)NC(=O)[C@H]([C@@H](C)O)NC(=O)[C@@H](Cc2ccccc2)NC(=O)[C@H](CCN)NC1=O)[C@@H](C)O [Compound 11, (S)-6-methyloctanoyl-Dab-Thr-D-Dab-ring(4-10)[Dab-Dab-D-Phe-Thr-Dab-Dab-Thr]] (X1-[Dab]T[dDab][Dab][Dab][dF]T[Dab][Dab]T; lactam 4-C) | 371 ± 54.6 (≈ 311 µM) |  |  |  |  |  |  |  |  | ≤0.03 | ≤0.03 | ≤0.03 | ≤0.03 | ≤0.03 | 1 (≈ 0.839 µM) | ≤0.03 | 1 (≈ 0.839 µM) |
| CCCCCCCC(=O)N[C@@H](CCN)C(=O)N[C@H](C(=O)N[C@@H](CCCN)C(=O)N[C@H]1CCNC(=O)[C@H]([C@@H](C)O)NC(=O)[C@H](CCN)NC(=O)[C@H](CCN)NC(=O)[C@H]([C@@H](C)O)NC(=O)[C@@H](Cc2ccccc2)NC(=O)[C@H](CCN)NC1=O)[C@@H](C)O [Compound 28, Octanoyl-Dab-Thr-Orn-ring(4-10)[Dab-Dab-D-Phe-Thr-Dab-Dab-Thr]] (Octanoyl-[Dab]T[Orn][Dab][Dab][dF]T[Dab][Dab]T; lactam 4-C) | > 500 |  |  |  |  |  |  |  |  | ≤0.03 | 0.125 (≈ 0.105 µM) | ≤0.03 | ≤0.03 | 0.06 (≈ 0.0504 µM) | 0.25 (≈ 0.21 µM) | ≤0.03 | ≤0.03 |
| CCCCCCCC(=O)N[C@@H](CCN)C(=O)N[C@H](C(=O)N[C@H](CO)C(=O)N[C@H]1CCNC(=O)[C@H]([C@@H](C)O)NC(=O)[C@H](CCN)NC(=O)[C@H](CCCN)NC(=O)[C@H]([C@@H](C)O)NC(=O)[C@@H](Cc2ccccc2)NC(=O)[C@H](CCN)NC1=O)[C@@H](C)O [Compound 78, Octanoyl-Dab-Thr-D-Ser-ring(4-10)[Dab-Dab-D-Phe-Thr-Orn-Dab-Thr]] (Octanoyl-[Dab]T[dS][Dab][Dab][dF]T[Orn][Dab]T; lactam 4-C) | > 500 |  |  |  |  |  |  |  |  | 0.25 (≈ 0.212 µM) | 0.06 (≈ 0.0509 µM) | ≤0.03 | ≤0.03 | ≤0.03 | 64 (≈ 54.3 µM) | 0.5 (≈ 0.424 µM) | >64 |
| CCCCCCC(=O)N[C@@H](CCN)C(=O)N[C@H](C(=O)N[C@H](CN)C(=O)N[C@H]1CCNC(=O)[C@H]([C@@H](C)O)NC(=O)[C@H](CCN)NC(=O)[C@H](CCN)NC(=O)[C@H]([C@@H](C)O)NC(=O)[C@@H](Cc2ccccc2)NC(=O)[C@H](CCN)NC1=O)[C@@H](C)O [Compound 4, Heptanoyl-Dab-Thr-D-Dap-ring(4-10)[Dab-Dab-D-Phe-Thr-Dab-Dab-Thr]] (Heptanoyl-[Dab]T[dDap][Dab][Dab][dF]T[Dab][Dab]T; lactam 4-C) | > 500 |  |  |  |  |  |  |  |  | 0.03 (≈ 0.0261 µM) | 0.03 (≈ 0.0261 µM) | 0.03 (≈ 0.0261 µM) | 0.03 (≈ 0.0261 µM) | 0.03 (≈ 0.0261 µM) | 0.25 (≈ 0.218 µM) | 0.03 (≈ 0.0261 µM) | 0.03 (≈ 0.0261 µM) |
